Assays:
Type in all cases: in vivo
[1] = test system: Solanum nigrum (SOLNI); test: Post-emergence herbicidal glasshouse test; settings: post-emergence (sprayed after 8 days cultivation), evaluated after 13 days, 100=total damage to plant, 0=no damage to plant; for pest or weed control at 1000 g/ha: Solanum nigrum, 312 h, read-out: POST Application SOLNI, damage to plant; for POST Application SOLNI, damage to plant: 1000 g/ha
Procedure: (§1) Seeds of a variety of test species were sown in standard soil in pots (Alopecurus myosuroides (ALOMY), Setaria faberi (SETFA), Echinochloa crus-galli (ECHCG), Solanum nigrum (SOLNI) and Amaranthus retoflexus (AMARE)). After cultivation for one day (pre-emergence) or after 8 days cultivation (post-emergence) under controlled conditions in a glasshouse (at 24/16° C., day/night; 14 hours light; 65% humidity), the plants were sprayed with an aqueous spray solution derived from the formulation of the technical active ingredient in acetone/water (50:50) solution containing 0.5% Tween 20 (polyoxyethelyene sorbitan monolaurate, CAS RN 9005-64-5). Compounds were applied at 1000 g/ha. The test plants were then grown in a glasshouse under controlled conditions in a glasshouse (at 24/16° C., day/night; 14 hours light; 65% humidity) and watered twice daily. After 13 days for pre and post-emergence, the test was evaluated (100=total damage to plant; 0=no damage to plant).

[2] = test system: Setaria faberi (SETFA); test: Post-emergence herbicidal glasshouse test; settings: post-emergence (sprayed after 8 days cultivation), evaluated after 13 days, 100=total damage to plant, 0=no damage to plant; for pest or weed control at 1000 g/ha: Setaria faberi, 312 h, read-out: POST Application SETFA, damage to plant; for POST Application SETFA, damage to plant: 1000 g/ha
Procedure: as §1

[3] = test system: Alopecurus myosuroides (ALOMY); test: Post-emergence herbicidal glasshouse test; settings: post-emergence (sprayed after 8 days cultivation), evaluated after 13 days, 100=total damage to plant, 0=no damage to plant; for pest or weed control at 1000 g/ha: Alopecurus myosuroides, 312 h, read-out: POST Application ALOMY, damage to plant; for POST Application ALOMY, damage to plant: 1000 g/ha
Procedure: as §1

[4] = test system: Echinochloa crus-galli (ECHCG); test: Post-emergence herbicidal glasshouse test; settings: post-emergence (sprayed after 8 days cultivation), evaluated after 13 days, 100=total damage to plant, 0=no damage to plant; for pest or weed control at 1000 g/ha: Echinochloa crus-galli, 312 h, read-out: POST Application ECHCG, damage to plant; for POST Application ECHCG, damage to plant: 1000 g/ha
Procedure: as §1

[5] = test system: Amaranthus retoflexus (AMARE); test: Post-emergence herbicidal glasshouse test; settings: post-emergence (sprayed after 8 days cultivation), evaluated after 13 days, 100=total damage to plant, 0=no damage to plant; for pest or weed control at 1000 g/ha: Amaranthus retroflexus, 312 h, read-out: POST Application AMARE, damage to plant; for POST Application AMARE, damage to plant: 1000 g/ha
Procedure: as §1

[6] = test system: Solanum nigrum (SOLNI); test: Pre-emergence herbicidal glasshouse test; settings: pre-emergence (sprayed after one day cultivation), evaluated after 13 days, 100=total damage to plant, 0=no damage to plant; for pest or weed control at 1000 g/ha: Solanum nigrum, 312 h, read-out: PRE Application SOLNI, damage to plant; for PRE Application SOLNI, damage to plant: 1000 g/ha
Procedure: as §1

[7] = test system: Setaria faberi (SETFA); test: Pre-emergence herbicidal glasshouse test; settings: pre-emergence (sprayed after one day cultivation), evaluated after 13 days, 100=total damage to plant, 0=no damage to plant; for pest or weed control at 1000 g/ha: Setaria faberi, 312 h, read-out: PRE Application SETFA, damage to plant; for PRE Application SETFA, damage to plant: 1000 g/ha
Procedure: as §1

[8] = test system: Alopecurus myosuroides (ALOMY); test: Pre-emergence herbicidal glasshouse test; settings: pre-emergence (sprayed after one day cultivation), evaluated after 13 days, 100=total damage to plant, 0=no damage to plant; for pest or weed control at 1000 g/ha: Alopecurus myosuroides, 312 h, read-out: PRE Application ALOMY, damage to plant; for PRE Application ALOMY, damage to plant: 1000 g/ha
Procedure: as §1

[9] = test system: Echinochloa crus-galli (ECHCG); test: Pre-emergence herbicidal glasshouse test; settings: pre-emergence (sprayed after one day cultivation), evaluated after 13 days, 100=total damage to plant, 0=no damage to plant; for pest or weed control at 1000 g/ha: Echinochloa crus-galli, 312 h, read-out: PRE Application ECHCG, damage to plant; for PRE Application ECHCG, damage to plant: 1000 g/ha
Procedure: as §1

[10] = test system: Amaranthus retoflexus (AMARE); test: Pre-emergence herbicidal glasshouse test; settings: pre-emergence (sprayed after one day cultivation), evaluated after 13 days, 100=total damage to plant, 0=no damage to plant; for pest or weed control at 1000 g/ha: Amaranthus retroflexus, 312 h, read-out: PRE Application AMARE, damage to plant; for PRE Application AMARE, damage to plant: 1000 g/ha
Procedure: as §1

SMILES	pest or weed control at 1000 g/ha [1]	pest or weed control at 1000 g/ha [2]	pest or weed control at 1000 g/ha [3]	pest or weed control at 1000 g/ha [4]	pest or weed control at 1000 g/ha [5]	pest or weed control at 1000 g/ha [6]	pest or weed control at 1000 g/ha [7]	pest or weed control at 1000 g/ha [8]	pest or weed control at 1000 g/ha [9]	pest or weed control at 1000 g/ha [10]	POST Application SOLNI, damage to plant [1]	POST Application SETFA, damage to plant [2]	POST Application ALOMY, damage to plant [3]	POST Application ECHCG, damage to plant [4]	POST Application AMARE, damage to plant [5]	PRE Application SOLNI, damage to plant [6]	PRE Application SETFA, damage to plant [7]	PRE Application ALOMY, damage to plant [8]	PRE Application ECHCG, damage to plant [9]	PRE Application AMARE, damage to plant [10]
Cc1c(F)cnc2nc(C(F)(F)F)c(C(=O)C3C(=O)CCCC3=O)cc12 [Compound 1.62, 2-[6-Fluoro-5-methyl-2-trifluoromethyl-[1,8]-naphthyridine-3-carbony]-cyclohexane-1,3-dione]	80%	70%	0%	70%	50%	60%	30%	0%	50%	20%										
CCCCC(C)Oc1ccc2cc(C(=O)C3C(=O)CCCC3=O)c(C(F)(F)F)nc2n1 (stereo not shown) [Compound 1.56]											80	80	30	70	70	100	90	20	80	40
Cc1nc2nc(C(F)F)c(C(=O)C3C(=O)CCCC3=O)cc2cc1F [Compound 1.78, 2-(2-difluoromethyl-6-fluoro-7-methyl-[1,8]-naphthyridine-3-carbonyl)-cyclohexane-1,3-dione]	80%	90%	60%	90%	100%	100%	100%	80%	100%	100%										
CCOCCn1c(=O)ccc2cc(C(=O)C3C(=O)CCCC3=O)c(C(F)(F)F)nc21 [Compound 2.16, 2-{8-(2-ethoxyethyl)-7-oxo-7,8-dihydro-2-trifluoromethyl-[1,8]-naphthyridine-3-carbony}-cyclohexane-1,3-dione]											90	90	90	90	70	90	90	60	90	90
Cc1cc(Cn2c(=O)ccc3cc(C(=O)C4C(=O)CCCC4=O)c(C(F)(F)F)nc32)no1 [Compound 2.1]											90	90	90	80	100	90	90	80	90	90
COCCNc1nc2nc(C(F)(F)F)c(C(=O)C3C(=O)CCCC3=O)cc2cc1F [Compound 1.83, 2-[6-fluoro-7-(2-methoxyethylamino)-2-trifluoromethyl-[1,8]-naphthyridine-3-carbony]-cyclohexane-1,3-dione]											80	80	80	80	80	100	100	60	100	100
CCOc1nc2nc(C(F)(F)F)c(C(=O)C3C(=O)C4CCC(C4)C3=O)cc2cc1F (stereo not shown) [Compound 3.4]	90%	90%	70%	80%	70%	100%	100%	70%	100%	100%										
O=C1CCCC(=O)C1C(=O)c1cc2ccc(=O)n(C3CCCC3)c2nc1C(F)(F)F [Compound 2.8, 2-{8-cyclopentyl-7-oxo-7,8-dihydro-2-trifluoromethyl-[1,8]-naphthyridine-3-carbony}-cyclohexane-1,3-dione]	90%	90%	70%	80%	70%	90%	70%	30%	70%	80%										
O=C1CCCC(=O)C1C(=O)c1cc2cc(F)c(NCC(F)(F)F)nc2nc1C(F)(F)F [Compound 1.90, 2-[6-fluoro-7-(2,2,2-trifluoroethylamino)-2-trifluoromethyl-[1,8]-naphthyridine-3-carbony]-cyclohexane-1,3-dione]	90%	90%	80%	90%	80%	100%	100%	70%	100%	100%										
CCCn1c(=O)ccc2cc(C(=O)C3C(=O)CCCC3=O)c(C(F)(F)F)nc21 [Compound 2.13, 2-{8-n.-propyl-7-oxo-7,8-dihydro-2-trifluoromethyl-[1,8]-naphthyridine-3-carbony}-cyclohexane-1,3-dione]											90	90	80	90	70	100	90	60	90	90

Source: patent US8461083B2, “Herbicidal compounds” (Syngenta Limited, priority 2008, dated 2013)
